pKd: −log10 of the molar value.
The compounds below were run against Mitogen-activated protein kinase kinase kinase 1/RAF proto-oncogene serine/threonine-protein kinase (Homo sapiens, UniProt P04049+Q02750) (assay: AlphaLISA Assay).
Description: 5 μL 4×MEK1 stock solution was added to wells A1-P20 by multichannel pipettes. […] 5 μL 4×CRAF stock solution at different concentrations or 5 μL or 10 μL AlphaLISA buffer was added by multichannel pipettes. The plate was sealed, centrifuged at 1000 rpm for 1 minute, and incubated at room temperature for 60 minutes. 5 μL 4×glutathione acceptor beads were first added to all wells by multichannel pipettes. The ambient light was subsequently adjusted to <100 lux (light meter) before adding 5 μL 4×nickel chelate donor beads to the same wells. From this step on, the plate was covered with a black plate cover, centrifuged at 1000 rpm for 1 minute, and incubated at room temperature for 60 minutes.

Sequence of Mitogen-activated protein kinase kinase kinase 1/RAF proto-oncogene serine/threonine-protein kinase (P04049 whole entry): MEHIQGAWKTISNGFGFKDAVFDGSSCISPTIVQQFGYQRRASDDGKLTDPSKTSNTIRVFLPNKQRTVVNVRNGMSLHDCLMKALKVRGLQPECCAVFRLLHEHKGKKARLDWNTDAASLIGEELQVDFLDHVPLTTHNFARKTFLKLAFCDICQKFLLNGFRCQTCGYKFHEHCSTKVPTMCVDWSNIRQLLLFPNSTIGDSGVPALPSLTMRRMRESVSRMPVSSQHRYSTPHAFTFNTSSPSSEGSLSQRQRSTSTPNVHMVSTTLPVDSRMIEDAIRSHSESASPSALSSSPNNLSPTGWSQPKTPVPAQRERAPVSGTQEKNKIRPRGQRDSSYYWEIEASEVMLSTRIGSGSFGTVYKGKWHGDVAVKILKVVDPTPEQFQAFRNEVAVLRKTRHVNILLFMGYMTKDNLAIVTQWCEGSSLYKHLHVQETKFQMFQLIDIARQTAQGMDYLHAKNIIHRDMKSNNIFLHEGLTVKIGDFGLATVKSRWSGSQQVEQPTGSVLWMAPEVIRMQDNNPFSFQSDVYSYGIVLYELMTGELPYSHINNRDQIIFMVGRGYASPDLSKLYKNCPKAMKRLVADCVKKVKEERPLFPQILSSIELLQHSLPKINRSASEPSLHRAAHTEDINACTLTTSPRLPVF
Sequence of Mitogen-activated protein kinase kinase kinase 1/RAF proto-oncogene serine/threonine-protein kinase (Q13233 whole entry, further chain): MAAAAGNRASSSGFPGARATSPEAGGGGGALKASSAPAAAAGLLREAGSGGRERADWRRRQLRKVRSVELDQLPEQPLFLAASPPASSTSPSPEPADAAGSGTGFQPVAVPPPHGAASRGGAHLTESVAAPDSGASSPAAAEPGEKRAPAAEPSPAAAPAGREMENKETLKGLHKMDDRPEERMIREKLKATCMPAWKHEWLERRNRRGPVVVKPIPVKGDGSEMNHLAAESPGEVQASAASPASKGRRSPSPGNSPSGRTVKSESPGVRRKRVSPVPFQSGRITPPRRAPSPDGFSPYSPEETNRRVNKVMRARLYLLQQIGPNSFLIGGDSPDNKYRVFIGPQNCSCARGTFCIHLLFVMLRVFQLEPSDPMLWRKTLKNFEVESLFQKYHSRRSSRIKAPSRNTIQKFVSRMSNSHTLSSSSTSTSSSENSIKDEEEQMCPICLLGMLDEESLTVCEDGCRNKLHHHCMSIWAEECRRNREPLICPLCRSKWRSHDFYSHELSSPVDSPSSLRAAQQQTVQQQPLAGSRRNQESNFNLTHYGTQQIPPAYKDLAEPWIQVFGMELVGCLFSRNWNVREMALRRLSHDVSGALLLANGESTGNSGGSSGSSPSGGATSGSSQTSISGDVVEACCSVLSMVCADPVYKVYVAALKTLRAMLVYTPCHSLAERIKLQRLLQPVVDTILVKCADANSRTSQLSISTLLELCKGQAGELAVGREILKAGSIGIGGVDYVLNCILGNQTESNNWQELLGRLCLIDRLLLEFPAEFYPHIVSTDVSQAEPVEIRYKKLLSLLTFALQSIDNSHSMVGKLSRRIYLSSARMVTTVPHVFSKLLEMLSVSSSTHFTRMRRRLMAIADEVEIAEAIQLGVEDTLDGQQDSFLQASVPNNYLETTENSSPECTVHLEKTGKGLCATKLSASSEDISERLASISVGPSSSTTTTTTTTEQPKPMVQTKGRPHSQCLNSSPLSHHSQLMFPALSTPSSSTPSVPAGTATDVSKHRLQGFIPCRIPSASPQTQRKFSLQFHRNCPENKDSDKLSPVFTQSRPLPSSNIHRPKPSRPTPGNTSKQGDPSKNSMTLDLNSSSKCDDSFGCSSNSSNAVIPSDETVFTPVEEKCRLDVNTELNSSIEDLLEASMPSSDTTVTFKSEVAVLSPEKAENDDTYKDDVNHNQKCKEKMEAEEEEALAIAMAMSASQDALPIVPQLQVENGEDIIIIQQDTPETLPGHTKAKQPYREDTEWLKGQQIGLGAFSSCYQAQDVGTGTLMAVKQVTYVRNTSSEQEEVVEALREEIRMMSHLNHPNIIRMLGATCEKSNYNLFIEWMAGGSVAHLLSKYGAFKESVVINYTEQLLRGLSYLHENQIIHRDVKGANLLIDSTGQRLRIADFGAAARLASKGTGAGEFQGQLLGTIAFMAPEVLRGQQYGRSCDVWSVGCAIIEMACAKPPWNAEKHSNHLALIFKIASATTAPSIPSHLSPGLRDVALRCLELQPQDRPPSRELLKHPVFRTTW

Structure (SMILES) | pKd
CNS(=O)(=O)Nc1cccc(Oc2c(C(=O)NC3CC3)c(Nc3ccc(I)cc3F)n(C)c(=O)c2C)c1OC [US20230382863, Compound I-1] | 9.38
Cc1c(Oc2cccc(NS(=O)(=O)NC3CC3)c2Cl)c(C(=O)NC2CC2)c(Nc2ccc(I)cc2F)n(C)c1=O [US20230382863, Compound I-42] | 9.24
CCNS(=O)(=O)Nc1cccc(Oc2c(C(=O)NC3CC3)c(Nc3ccc(I)cc3F)n(C)c(=O)c2C)c1Cl [US20230382863, Compound I-43] | 9.29
COCCNS(=O)(=O)Nc1cccc(Oc2c(C(=O)NC3CC3)c(Nc3ccc(I)cc3F)n(C)c(=O)c2C)c1Cl [US20230382863, Compound I-55] | 9.29

Now from value to compound:

pKd | Structure (SMILES)
9.33 | CNS(=O)(=O)Nc1cccc(Oc2c(C(=O)NC3CC3)c(Nc3ccc(I)cc3F)n(C)c(=O)c2C)c1OC(F)(F)F [US20230382863, Compound I-40]
9.32 | CNS(=O)(=O)Nc1cccc(Oc2c(C(=O)NC(C)C)c(Nc3ccc(I)cc3F)n(C)c(=O)c2C)c1Cl [US20230382863, Compound I-41]
9.42 | CNS(=O)(=O)Nc1cccc(Oc2c(C(=O)NCC(F)(F)F)c(Nc3ccc(I)cc3F)n(C)c(=O)c2C)c1Cl [US20230382863, Compound I-45]
9.46 | CCNC(=O)c1c(Oc2cccc(NS(=O)(=O)NC)c2Cl)c(C)c(=O)n(C)c1Nc1ccc(I)cc1F [US20230382863, Compound I-54]

From BindingDB's records for patent US20230382863 (Ikena Oncology, 2023)
